{"source": "patent US5504213A", "about": "“Benzofuranyl-and-thiophenyl-alkanecarboxyclic acid derivatives” (Bayer Aktiengesellschaft, priority 1993, dated 1996)", "key": {"PMN cyclic AMP": {"test_system": "PMN cyclic AMP", "experiment": "Measurement of PMN cyclic AMP concentration (human PMN, FMLP-stimulated)", "format": "cell-based", "conditions": "4×10^-8 M FMLP, control 100, expressed as percentage of vehicle control, read-out: % elevation of cAMP at 1 μM (control 100)", "description": "1. Preparation of human PMN\nBlood was taken from healthy subjects by venous puncture and neutrophils were purified by dextran sedimentation and resuspended in the buffered medium.\n3. Measurement of PMN cyclic AMP concentration\nThe compounds according to the invention were incubated with 3.7×10^6 PMN for 5 min at 37° C. before addition of 4×10^-8 M FMLP. After 6 min protein was precipitated by the addition of 1% v/v conc. HCl in 96% v/v ethanol containing 0.1 mM EDTA. After centrifugation the ethanolic extracts were evaporated to dryness under N2 and resuspended in 50 mM Tris/HCl pH 7.4 containing 4 mM EDTA. The cyclic AMP concentration in the extracts was determined using a cyclic AMP binding protein assay supplied by Amersham International plc. Cyclic AMP concentrations were expressed as percentage of vehicle containing control incubations."}, "[1]": {"test_system": "FMLP-induced skin oedama of guinea pigs", "experiment": "Effect of intravenously administered compounds on the FMLP-induced skin oedema of guinea pigs", "format": "in vivo", "conditions": "guinea pig, 1 mg/kg", "description": "5. Effect of intravenously administered compounds on the FMLP-induced skin oedama of guinea pigs.\nGuinea-pigs (600-800 g) were anaesthetized with pentobarbitone sodium (40 mg/kg, i.p.) and injected (i.V.) with a 0.5 ml mixture of pentamine sky blue (5% W/V) and ^125 I-HSA ([…]). 10 minutes later 3 intradermal injections of FMLP (10 μg/site), 1 injection of histamine (1 μg/site) and 1 injection of vehicle (100 μl of 0.2% DMSO V/V in Hanks Buffered salt solution) were made on the left hand side of the animal (preinjection sites). 5 minutes later the drug (1 ml/kg) or the vehicle (50% PEG 400 V/V in distilled water, 1 ml/kg) was administered (i.V.). 10 minutes later an identical pattern of intradermal injections was made on the opposite flank of the animal (post-injection sites). These responses were allowed to develop for 15 minutes before the animal was sacrificed and a blood sample taken.\nSkin sites and plasma samples were counted for 1 minute on a gamma counter and the degree of oedema calculated as μl plasma/skin site. Statistical analysis was done by a paired t-test on the mean of the 3 pre-injection site values of μl plasma obtained for FMLP/animal. The percentage inhibition of drug or vehicle was calculated as follows [formula]"}, "[2]": {"test_system": "FMLP-induced skin oedema of guinea-pigs", "experiment": "Effect of orally administered compounds on the FMLP-induced skin oedema of guinea-pigs in vivo", "conditions": "guinea pig, 25 mg/kg", "description": "6. Effect of orally administered compounds on the FMLP-induced skin oedema\nof guinea-pigs in vivo-Test's p.o.\nGuinea-pits (600-800 g) were fasted overnight and orally treated with vehicle ([…]; […]) 40 minutes later the animals were anasthetized with pentobarbitone sodium (40 mg/kg; i.p.) and 0.6 ml of a mixture of pontamine sky blue (5% w/v) and ^125 I-HSA (1 μci/animal) was injected (i.V.). 90 minutes after oral pretreatment FMLP (50 μg/site) was injected (i.d.) at 4 different sites, histamine (1 μg/site) and vehicle (100 μl, 1% DMSO v/v in Hanks buffered salt solution) were both injected (i.d.) at 2 different sites.\nThe responses were allowed to develop for 30 minutes before the animal was sacrificed and a blood sample taken.\nSkin sites and plasma samples were counted for 1 minute on a gamma counter. The degree of oedema was calculated as μl plasma/skin site.\nStatistical analysis was carried out by a Mann-Whitney U-test on the mean of the 4 values of μl Plasma obtained for FMLP/animal."}}}
{"smiles": "COC(=O)CCc1c(C(=O)c2ccc(Cl)cc2)oc2cc(O)ccc12", "note": "[Example 30]", "values": [{"measurement": "activity at 1 µM", "setting": "PMN cyclic AMP", "value": 394, "unit": "%"}, {"measurement": "% inhibition (FMLP-induced skin oedema, i.v.)", "setting": "[1]", "value": 40.0, "unit": "%"}, {"measurement": "% inhibition (FMLP-induced skin oedema, p.o.)", "setting": "[2]", "value": 46, "unit": "%"}]}
